Data taken from ChEMBL document CHEMBL5321199, “Development of a series of quinazoline-2,5-diamine derivatives as potent hematopoietic progenitor kinase 1 (HPK1) inhibitors” (Eur J Med Chem, 2023).
Active and inactive are the calls of the source. The rule behind the calls is not given here.

What was measured:
[1] = target: T1, Mitogen-activated protein kinase kinase kinase kinase 1 (Homo sapiens, UniProt Q92918); assay: Inhibition of HPK1 (unknown origin) at 100 nM using myelin basic protein as substrate incubated for 60 mins in presence of ATP by ADP-Glo kinase assay relative to control
Target sequence in this assay (Q92918 whole entry, looked up): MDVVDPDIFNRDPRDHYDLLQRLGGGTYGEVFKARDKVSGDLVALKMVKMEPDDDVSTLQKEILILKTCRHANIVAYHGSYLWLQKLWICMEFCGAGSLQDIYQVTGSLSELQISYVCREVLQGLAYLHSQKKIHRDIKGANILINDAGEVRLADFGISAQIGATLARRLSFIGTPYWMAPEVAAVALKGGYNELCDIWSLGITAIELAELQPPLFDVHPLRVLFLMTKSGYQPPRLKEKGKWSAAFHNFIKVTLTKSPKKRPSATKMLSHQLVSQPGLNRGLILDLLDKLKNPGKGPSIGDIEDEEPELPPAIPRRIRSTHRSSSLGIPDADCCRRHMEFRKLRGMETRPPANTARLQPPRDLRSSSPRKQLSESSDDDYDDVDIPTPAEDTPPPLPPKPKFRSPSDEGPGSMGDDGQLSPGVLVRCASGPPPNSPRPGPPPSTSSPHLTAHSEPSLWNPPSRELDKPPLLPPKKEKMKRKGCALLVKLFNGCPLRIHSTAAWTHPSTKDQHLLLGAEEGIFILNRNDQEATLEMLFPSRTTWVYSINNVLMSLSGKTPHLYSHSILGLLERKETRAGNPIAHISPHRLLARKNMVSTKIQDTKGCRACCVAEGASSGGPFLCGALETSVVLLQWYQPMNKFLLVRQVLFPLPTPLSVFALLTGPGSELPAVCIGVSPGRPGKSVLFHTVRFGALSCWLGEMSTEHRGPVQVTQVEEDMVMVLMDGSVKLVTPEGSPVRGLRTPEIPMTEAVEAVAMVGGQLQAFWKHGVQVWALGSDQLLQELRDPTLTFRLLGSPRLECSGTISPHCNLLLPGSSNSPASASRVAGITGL

[2] = target: T1, Mitogen-activated protein kinase kinase kinase kinase 1; assay: Inhibition of HPK1 (unknown origin) at 1 uM using myelin basic protein as substrate incubated for 60 mins in presence of ATP by ADP-Glo kinase assay relative to control
Target sequence in this assay (Q92918 whole entry, looked up): as above

[3] = target: T1, Mitogen-activated protein kinase kinase kinase kinase 1; assay: Inhibition of HPK1 (unknown origin) using myelin basic protein as substrate incubated for 60 mins in presence of ATP by ADP-Glo kinase assay
Target sequence in this assay (Q92918 whole entry): as the sequence (Q92918 whole entry, looked up) above

[4] = target: T1, Mitogen-activated protein kinase kinase kinase kinase 1; assay: Inhibition of HPK1 in human Jurkat E6.1 cells assessed as phosphorylation of SLP76 at serine 376 residue incubated for 4 hrs by HTRF assay; assay type: cell-based
Target sequence in this assay (Q92918 whole entry): as the sequence (Q92918 whole entry, looked up) above

[5] = target: T1, Mitogen-activated protein kinase kinase kinase kinase 1; assay: Inhibition of HPK1 in human PBMC cells assessed as increase in IL-2 release at above 1 uM preincubated with compound for 1 hr followed by stimulation with alphaCD3/CD28 measured after 48 hrs by ELISA assay; assay type: cell-based; conditions: time 49.0 hrs
Target sequence in this assay (Q92918 whole entry, looked up): as above

[6] = target: T1, Mitogen-activated protein kinase kinase kinase kinase 1; assay: Inhibition of HPK1 in human Jurkat E6.1 cells assessed as reduction in SLP76 phosphorylation at Serine 376 residue at 33 nM preincubated with compound for 2 hrs followed by stimulation with alphaCD3/CD28 measured after 10 mins by Western blotting analysis; assay type: cell-based; conditions: time 130.0 min
Target sequence in this assay (Q92918 whole entry, looked up): as above

[7] = target: T1, Mitogen-activated protein kinase kinase kinase kinase 1; assay: Inhibition of HPK1 in human Jurkat E6.1 cells assessed as reduction in SLP76 phosphorylation at Serine 376 residue preincubated with compound for 2 hrs followed by stimulation with alphaCD3/CD28 measured after 10 mins by Western blotting analysis; assay type: cell-based
Target sequence in this assay (Q92918 whole entry): as the sequence (Q92918 whole entry, looked up) above

[8] = target: T1, Mitogen-activated protein kinase kinase kinase kinase 1; assay: Inhibition of N-terminal DYKDDDDK tagged HPK1 CD (1 to 346 residues) (unknown origin) incubated for 1 hr in presence of ATP by TR-FRET assay
Target sequence in this assay (Q92918 whole entry): as the sequence (Q92918 whole entry, looked up) above

[9] = target: T1, Mitogen-activated protein kinase kinase kinase kinase 1; assay: Inhibition of HPK1 in human PBMC cells assessed as increase in IL-2 release preincubated with compound for 1 hr followed by stimulation with CD3/CD28-dynabead measured after 16 to 18 hrs by ELISA assay; assay type: cell-based
Target sequence in this assay (Q92918 whole entry): as the sequence (Q92918 whole entry, looked up) above

[10] = target: T1, Mitogen-activated protein kinase kinase kinase kinase 1; assay: Inhibition of HPK1 in human PBMC cells assessed as reduction in SLP76 phosphorylation at Ser376 residue preincubated with compound for 1 hr followed by stimulation with CD3/CD28-dynabead by ELISA assay; assay type: cell-based
Target sequence in this assay (Q92918 whole entry): as the sequence (Q92918 whole entry, looked up) above

[11] = target: T1, Mitogen-activated protein kinase kinase kinase kinase 1; assay: Inhibition of HPK1 in human Jurkat E6.1 cells assessed as reduction in SLP76 phosphorylation at Serine 376 residue at 0.4 to 100 nM preincubated with compound for 2 hrs followed by stimulation with alphaCD3/CD28 measured after 10 mins by Western blotting analysis; assay type: cell-based; conditions: dose 0.4-100 nM, time 130.0 min
Target sequence in this assay (Q92918 whole entry, looked up): as above

SMILES	inhibition [1] [%]	inhibition [2] [%]	IC50 [3] [nM]	other results
Nc1cc(-c2ccccc2)cc2nc(Nc3cnn(C4CC4)c3)ncc12	1.6	33.6		
Nc1cc(-c2ccccn2)cc2nc(Nc3cnn(C4CC4)c3)ncc12	-6.9	30.3		
CN1CCC(c2ncc(-c3cnc(N)c(OCc4cccc(C#CC(C)(C)O)c4)c3)s2)CC1				IC50 [4]: < 100 nM
Nc1cncc(-c2cc(N)c3cnc(Nc4cnn(C5CC5)c4)nc3c2)c1	80		33.2	
CCN1CCc2ccc(Nc3ncc4c(N)cc(-c5cnc6c(c5C)NCCO6)cc4n3)cc2C1			6.9	
CC1(C)OC(=O)c2ccc(Nc3ncc(-c4nnco4)c(N[C@H](CO)c4ccccc4)n3)cc21	92.5	99.7		
Cn1nccc1-c1cc(N)c2cnc(Nc3cnn(C4CC4)c3)nc2c1	23.2	49.2		
Cc1c(-c2cc(N)c3cnc(Nc4cc(C)n(C)n4)nc3c2)cnc2c1NCCO2			53	
Cc1c(-c2cc(N)c3cnc(NC(=O)C4CC4)nc3c2)cnc2c1NCCO2	4.7			
Cc1c(-c2cc(N)c3cnc(Nc4cnn(C)c4C)nc3c2)cnc2c1NCCO2			35.7	
Cc1nn(C)cc1-c1cc(N)c2cnc(Nc3cnn(C4CC4)c3)nc2c1	-5.1	25.8		
Cn1cc(-c2cc(N)c3cnc(Nc4cnn(C5CC5)c4)nc3c2)cn1	68.6	95.8	50.5	
Cc1nn(C)c(C)c1Nc1ncc2c(N)cc(-c3cnc4c(c3C)NCCO4)cc2n1	7.5			
Nc1cc(-c2ccncc2)cc2nc(Nc3cnn(C4CC4)c3)ncc12	-3.3	24.1		
Cc1cncc(-c2cc(N)c3cnc(Nc4cnn(C5CC5)c4)nc3c2)c1	42.7	87.6		
Cc1c(N)cncc1-c1cc(N)c2cnc(Nc3cnn(C4CC4)c3)nc2c1	93		10.4	
Cc1c(-c2cc(N)c3cnc(Nc4ccc5c(c4)CN(C(C)C)CC5)nc3c2)cnc2c1NCCO2			5.2	
COc1ncc(-c2cc(N)c3cnc(Nc4cnn(C5CC5)c4)nc3c2)cc1N	0.1	60.6		
COc1cc2c(cc1Nc1ncc3c(N)cc(-c4cnc5c(c4C)NCCO5)cc3n1)CN(C)CC2			7.3	
Cc1nn(C)cc1Nc1ncc2c(N)cc(-c3cnc4c(c3C)NCCO4)cc2n1			7.9	
Cc1c(-c2cc3cc(NC(=O)C4CC4)ncc3c(N)c2F)cnc2c1NCCO2	97.9		3.1	IC50 [8]: 0.067 nM; EC50 [9]: 16 nM; IC50 [10]: 84 nM; IC50 [7]: 6.1 nM; inhibition [11]: Active
Cc1ccncc1-c1cc(N)c2cnc(Nc3cnn(C4CC4)c3)nc2c1	87.2	98.1	17.9	
Cc1ccc(-c2cc(N)c3cnc(Nc4cnn(C5CC5)c4)nc3c2)cn1	36.2	85.9		
N#Cc1ccncc1-c1cc(N)c2cnc(Nc3cnn(C4CC4)c3)nc2c1	36.3	85.5		
Nc1cc(-c2cccnc2)cc2nc(Nc3cnn(C4CC4)c3)ncc12	56.2	86	61.4	
Cc1c(-c2cc(N)c3cnc(Nc4cnn(C5CC5)c4)nc3c2)cnn1C	53.6	90.9	61.1	

Second part, led by results:

inhibition [1] [%]	inhibition [2] [%]	IC50 [3] [nM]	SMILES	other results
		5.7	Cc1c(-c2cc(N)c3cnc(Nc4ccncc4)nc3c2)cnc2c1NCCO2	
		12	CCn1cc(Nc2ncc3c(N)cc(-c4cnc5c(c4C)NCCO5)cc3n2)cn1	
		95.7	Cc1c(-c2cc(N)c3cnc(Nc4ccccn4)nc3c2)cnc2c1NCCO2	
		5.6	CNCCc1ccc(Nc2ncc3c(N)cc(-c4cnc5c(c4C)NCCO5)cc3n2)cc1	
		6.2	Cc1c(-c2cc(N)c3cnc(Nc4ccccc4)nc3c2)cnc2c1NCCO2	
96.3		5.7	Cc1c(-c2cc(N)c3cnc(Nc4cnn(C5CC5)c4)nc3c2)cnc2c1NCCO2	inhibition [5]: Active; inhibition [6]: Active; IC50 [7]: 23.1 nM
		4.3	CNCc1ccc(Nc2ncc3c(N)cc(-c4cnc5c(c4C)NCCO5)cc3n2)cc1	
		7.8	Cc1c(-c2cc(N)c3cnc(Nc4cnn(C)c4)nc3c2)cnc2c1NCCO2	
		5	CNCc1cccc(Nc2ncc3c(N)cc(-c4cnc5c(c4C)NCCO5)cc3n2)c1	
		15.5	CCn1ccc(Nc2ncc3c(N)cc(-c4cnc5c(c4C)NCCO5)cc3n2)n1	
		6.4	Cc1c(-c2cc(N)c3cnc(Nc4cnn(C(C)C)c4)nc3c2)cnc2c1NCCO2	
		3	Cc1c(-c2cc(N)c3cnc(Nc4ccc5c(c4)CNCC5)nc3c2)cnc2c1NCCO2	
		6	CNCCc1cccc(Nc2ncc3c(N)cc(-c4cnc5c(c4C)NCCO5)cc3n2)c1	
		4.8	Cc1c(-c2cc(N)c3cnc(Nc4ccc5c(c4)CCN(C)C5)nc3c2)cnc2c1NCCO2	
		5.5	Cc1c(-c2cc(N)c3cnc(Nc4cccnc4)nc3c2)cnc2c1NCCO2	
		12.7	Cc1c(-c2cc(N)c3cnc(Nc4ccn(C)n4)nc3c2)cnc2c1NCCO2	
		4.3	Cc1c(-c2cc(N)c3cnc(Nc4ccc5c(c4)CCNC5)nc3c2)cnc2c1NCCO2	
